{
  "source": "paper PMC10178848",
  "about": "“Modulating fast skeletal muscle contraction protects skeletal muscle in animal models of Duchenne muscular dystrophy” (The Journal of Clinical Investigation, 2023)",
  "tested_on": "mdx mouse EDL muscle",
  "assay": "Phosphoprotein array analysis (Cell Signaling Phospho Antibody Array)",
  "protocol": "mdx mouse EDL muscle was prepared for ex vivo analysis as described (n = 5). Muscles were incubated for 1 hour with DMSO or EDG-5506 (5 μM) and then flash frozen in liquid nitrogen. Tissue preparation and analysis were performed as recommended by the manufacturer (Cell Signaling Phospho Antibody Array, Full Moon Biosystems).",
  "data": [
    {"smiles": "O=c1ccc(-c2cnc(OCC(F)(F)F)nc2)nn1Cc1cncc(F)c1", "note": "[EDG-5506]", "values": [
      {"measurement": "Data Normalized to Median Signal: CDK1/CDC2 (Phospho-Tyr15)", "setting": "4000031744 (T)", "value": 0.89},
      {"measurement": "Data Normalized to Median Signal: CREB (Phospho-Ser133)", "setting": "4000031744 (T)", "value": 0.81},
      {"measurement": "Data Normalized to Median Signal: CaMK2-beta/gamma/delta (Phospho-Thr287)", "setting": "4000031744 (T)", "value": 1.20},
      {"measurement": "Data Normalized to Median Signal: CaMK2A (Phospho-Thr286)", "setting": "4000031744 (T)", "value": 0.85},
      {"measurement": "Data Normalized to Median Signal: Caspase 8 (Phospho-Ser347)", "setting": "4000031744 (T)", "value": 1.06},
      {"measurement": "Data Normalized to Median Signal: Caspase 9 (Phospho-Ser196)", "setting": "4000031744 (T)", "value": 2.98},
      {"measurement": "Data Normalized to Median Signal: Catenin beta (Phospho-Thr41/Ser45)", "setting": "4000031744 (T)", "value": 0.90},
      {"measurement": "Data Normalized to Median Signal: Chk2 (Phospho-Thr68)", "setting": "4000031744 (T)", "value": 0.66},
      {"measurement": "Data Normalized to Median Signal: Cyclin D1 (Phospho-Thr286)", "setting": "4000031744 (T)", "value": 2.47},
      {"measurement": "Data Normalized to Median Signal: Cyclin E1 (Phospho-Thr77)", "setting": "4000031744 (T)", "value": 1.57},
      {"measurement": "Data Normalized to Median Signal: DARPP-32 (Phospho-Thr34)", "setting": "4000031744 (T)", "value": 0.93},
      {"measurement": "Data Normalized to Median Signal: EEF2 (Phospho-Thr56)", "setting": "4000031744 (T)", "value": 1.33},
      {"measurement": "Data Normalized to Median Signal: FADD (Phospho-Ser194)", "setting": "4000031744 (T)", "value": 2.10},
      {"measurement": "Data Normalized to Median Signal: FAK (Phospho-Ser910)", "setting": "4000031744 (T)", "value": 1.62},
      {"measurement": "Data Normalized to Median Signal: FGFR1 (Phospho-Tyr654)", "setting": "4000031744 (T)", "value": 2.43},
      {"measurement": "Data Normalized to Median Signal: GRK2 (Phospho-Ser29)", "setting": "4000031744 (T)", "value": 1.51},
      {"measurement": "Data Normalized to Median Signal: GSK3 alpha/beta (Phospho-Tyr216/279)", "setting": "4000031744 (T)", "value": 1.02},
      {"measurement": "Data Normalized to Median Signal: Gab2 (Phospho-Tyr643)", "setting": "4000031744 (T)", "value": 4.36},
      {"measurement": "Data Normalized to Median Signal: HDAC1 (Phospho-Ser421)", "setting": "4000031744 (T)", "value": 1.53},
      {"measurement": "Data Normalized to Median Signal: HDAC2 (Phospho-Ser394)", "setting": "4000031744 (T)", "value": 1.45},
      {"measurement": "Data Normalized to Median Signal: HSP90B (Phospho-Ser226)", "setting": "4000031744 (T)", "value": 2.09},
      {"measurement": "Data Normalized to Median Signal: IKK-beta (Phospho-Tyr188)", "setting": "4000031744 (T)", "value": 1.11},
      {"measurement": "Data Normalized to Median Signal: IKK-beta (Phospho-Tyr199)", "setting": "4000031744 (T)", "value": 1.14},
      {"measurement": "Data Normalized to Median Signal: IKK-gamma (Phospho-Ser31)", "setting": "4000031744 (T)", "value": 0.98},
      {"measurement": "Data Normalized to Median Signal: IL-4R/CD124 (Phospho-Tyr497)", "setting": "4000031744 (T)", "value": 1.35},
      {"measurement": "Data Normalized to Median Signal: IL-10R-alpha (Phospho-Tyr496)", "setting": "4000031744 (T)", "value": 1.26},
      {"measurement": "Data Normalized to Median Signal: IkB-alpha (Phospho-Ser32/36)", "setting": "4000031744 (T)", "value": 8.76},
      {"measurement": "Data Normalized to Median Signal: Integrin beta-3 (Phospho-Tyr773)", "setting": "4000031744 (T)", "value": 0.89},
      {"measurement": "Data Normalized to Median Signal: JunB (Phospho-Ser259)", "setting": "4000031744 (T)", "value": 0.90},
      {"measurement": "Data Normalized to Median Signal: LYN (Phospho-Tyr507)", "setting": "4000031744 (T)", "value": 1.16},
      {"measurement": "Data Normalized to Median Signal: Lamin A/C (Phospho-Ser392)", "setting": "4000031744 (T)", "value": 0.81},
      {"measurement": "Data Normalized to Median Signal: MEK1 (Phospho-Ser217)", "setting": "4000031744 (T)", "value": 0.66},
      {"measurement": "Data Normalized to Median Signal: NFkB-p65 (Phospho-Ser311)", "setting": "4000031744 (T)", "value": 0.96},
      {"measurement": "Data Normalized to Median Signal: NFkB-p65 (Phospho-Ser529)", "setting": "4000031744 (T)", "value": 54.58},
      {"measurement": "Data Normalized to Median Signal: NFkB-p100/p52 (Phospho-Ser865)", "setting": "4000031744 (T)", "value": 1.13},
      {"measurement": "Data Normalized to Median Signal: P38 MAPK (Phospho-Thr180/Tyr182)", "setting": "4000031744 (T)", "value": 1.99},
      {"measurement": "Data Normalized to Median Signal: P70S6K (Phospho-Ser424)", "setting": "4000031744 (T)", "value": 0.97},
      {"measurement": "Data Normalized to Median Signal: P90RSK (Phospho-Thr359/Ser363)", "setting": "4000031744 (T)", "value": 1.39},
      {"measurement": "Data Normalized to Median Signal: PDK1 (Phospho-Ser241)", "setting": "4000031744 (T)", "value": 1.70},
      {"measurement": "Data Normalized to Median Signal: PLCG1 (Phospho-Tyr783)", "setting": "4000031744 (T)", "value": 7.48},
      {"measurement": "Data Normalized to Median Signal: PLK1 (Phospho-Thr210)", "setting": "4000031744 (T)", "value": 0.61},
      {"measurement": "Data Normalized to Median Signal: PP2A-alpha (Phospho-Tyr307)", "setting": "4000031744 (T)", "value": 0.97},
      {"measurement": "Data Normalized to Median Signal: PPAR-gamma (Phospho-Ser112)", "setting": "4000031744 (T)", "value": 1.23},
      {"measurement": "Data Normalized to Median Signal: Rb (Phospho-Ser807)", "setting": "4000031744 (T)", "value": 0.99},
      {"measurement": "Data Normalized to Median Signal: RelB (Phospho-Ser552)", "setting": "4000031744 (T)", "value": 2.68},
      {"measurement": "Data Normalized to Median Signal: SAPK/JNK (Phospho-Tyr185)", "setting": "4000031744 (T)", "value": 0.87},
      {"measurement": "Data Normalized to Median Signal: SHP-2 (Phospho-Tyr542)", "setting": "4000031744 (T)", "value": 1.06},
      {"measurement": "Data Normalized to Median Signal: STAT3 (Phospho-Tyr705)", "setting": "4000031744 (T)", "value": 0.90},
      {"measurement": "Data Normalized to Median Signal: STAT4 (Phospho-Tyr693)", "setting": "4000031744 (T)", "value": 43.74},
      {"measurement": "Data Normalized to Median Signal: STAT6 (Phospho-Thr645)", "setting": "4000031744 (T)", "value": 0.94},
      {"measurement": "Data Normalized to Median Signal: SYK (Phospho-Tyr348)", "setting": "4000031744 (T)", "value": 1.04},
      {"measurement": "Data Normalized to Median Signal: Smad1 (Phospho-Ser187)", "setting": "4000031744 (T)", "value": 1.71},
      {"measurement": "Data Normalized to Median Signal: Smad2 (Phospho-Ser467)", "setting": "4000031744 (T)", "value": 1.05},
      {"measurement": "Data Normalized to Median Signal: Smad2/3 (Phospho-Thr8)", "setting": "4000031744 (T)", "value": 2.11},
      {"measurement": "Data Normalized to Median Signal: Smad3 (Phospho-Ser213)", "setting": "4000031744 (T)", "value": 1.56},
      {"measurement": "Data Normalized to Median Signal: Src (Phospho-Tyr418)", "setting": "4000031744 (T)", "value": 9.05},
      {"measurement": "Data Normalized to Median Signal: Tau (Phospho-Ser396)", "setting": "4000031744 (T)", "value": 0.88},
      {"measurement": "Data Normalized to Median Signal: VEGFR2 (Phospho-Tyr1175)", "setting": "4000031744 (T)", "value": 0.88},
      {"measurement": "Data Normalized to Median Signal: Zap-70 (Phospho-Tyr319)", "setting": "4000031744 (T)", "value": 1.25},
      {"measurement": "Data Normalized to Median Signal: c-Jun (Phospho-Ser73)", "setting": "4000031744 (T)", "value": 0.98},
      {"measurement": "Data Normalized to Median Signal: p44/42 MAP Kinase (Phospho-Tyr204)", "setting": "4000031744 (T)", "value": 0.86},
      {"measurement": "Data Normalized to Median Signal: p53 (Phospho-Ser15)", "setting": "4000031744 (T)", "value": 1.59},
      {"measurement": "Fold Change between Samples T/C: 4E-BP1 (Phospho-Thr45)", "setting": "T vs C", "value": 0.89}
    ]}
  ]
}
